Assay results reported in US20080161248A1, “Methods and Compositions for Therapeutic Treatment” (priority 2006, published 2008).

Columns and labels:
[1] = system: mdr1a knockout mice; settings: cited from earlier work
[2] = system: LEW responder splenocytes with irradiated BN stimulators (lymphocyte proliferation); assay: Mixed lymphocyte reaction (MLR) with spleen cells of treated Lewis rats; format: cell-based, rat; settings: LNS 0694 50, 150, 300 mg/kg i.p. 30 minutes prior to FK506 1 mg/kg i.v.
Method: Animals: 8-9 weeks-old Lewis and Brown Norway male rats were obtained from Charles River Laboratories. […] Treatment: Lewis rats were treated with different single doses of LNS 0694i.p. 30 minutes prior to single i.v. injections of tacrolimus at a concentration of 1 mg/kg as described in the table below. Spleens were collected at 4 hr after administration of FK506 for use in the in vitro mixed lymphocyte reaction (MLR) and Con A assays. […] Mixed lymphocyte reactions: A single cell suspension of the spleen of each rat on test (LEW, responder) was prepared with a Dounce homogenizer and wash-medium. The cell suspension was depleted of red blood cells (treatment with NH4CL/Tris buffer) and washed twice with wash medium before resuspending in complete medium (CM; […] A single cell suspension of splenocytes from five Brown Norway rats (BN, stimulators) was prepared with the same method. The BN splenocytes were pooled and irradiated with 1,500-2,000 rad (cesium source) before use. Varying numbers of responder cells were mixed with a constant number of stimulators (105) in 96-well, U-bottom cell culture plates to give a final responder:stimulator (R:S) ratio of 10:1,5: 1, 1:1 and 0.5:1 in 200 μl CM. […] The results of the MLR assays [thymidine incorporation as counts per minute (CPM)] are expressed as mean ±SD.

[3] = system: LEW responders activated with Con A (lymphocyte proliferation); assay: Con A stimulated proliferation of spleen cells of treated Lewis rats; format: cell-based, rat; settings: LNS 0694 i.p. 30 minutes prior to FK506 1 mg/kg i.v.
Method: Animals: 8-9 weeks-old Lewis and Brown Norway male rats were obtained from Charles River Laboratories. […] Treatment: Lewis rats were treated with different single doses of LNS 0694i.p. 30 minutes prior to single i.v. injections of tacrolimus at a concentration of 1 mg/kg as described in the table below. Spleens were collected at 4 hr after administration of FK506 for use in the in vitro mixed lymphocyte reaction (MLR) and Con A assays. […] Varying numbers of responder cells were mixed with a constant number of stimulators (105) in 96-well, U-bottom cell culture plates to give a final responder:stimulator (R:S) ratio of 10:1,5: 1, 1:1 and 0.5:1 in 200 μl CM. Control wells for each cell suspension contained 10^5 responders alone in medium and 10^5 pooled, irradiated stimulators alone in medium (separate wells). For a positive proliferative response, each responder (10^5) was treated with 2.5 μg/ml Con A. […] Each well was pulsed with 1 μCi tritiated thymidine for 18±2 hours before automatic harvesting and analysis in a liquid scintillation counter.

[4] = system: mouse spleen cells, response to Con A; assay: In vitro Con A assay on spleen cells; format: cell-based
Text: (§1) Animals: 8-9 weeks-old Lewis and Brown Norway male rats were obtained from Charles River Laboratories. General procedures for animal care and housing was in accordance with the National Research Council (NRC) Guide for the Care and Use of Laboratory Animals (1996) and the Animal Welfare Standards incorporated in 9 CFR Part 3, 1991.
(§2) Spleens were collected for use in in vitro Con A and LPS assays.
Results: FIGS. 8 and 9 show the effect of quercetin and tacrolimus on response of mouse spleen cells to Con A at a high (1.6×10^6 cells/well) and low (8×10^5 cells/well) cell concentration, respectively.
Spleen cells were treated with Con A in the presence of vehicle, tacrolimus, quercetin or two different concentrations of tacrolimus (10^−8.2 and 10^−8.5 M) and increasing doses of quercetin at a high cell concentration (FIG. 14) or at a low cell concentration (FIG. 15). […] There was no significance difference between the effect of quercetin on tacrolimus induced cell suppression in vitro at the different concentrations used for quercetin.

[5] = system: mouse spleen cells, response to LPS; assay: In vitro LPS assay on spleen cells; format: cell-based; settings: high ([…]10^6 cells/well) and low (8×10^5 cells/well) cell concentration
Text: as §1, §2
FIGS. 10 and 11 show the effect of quercetin and tacrolimus on response of mouse spleen cells to LPS at a high (1.6×10^6 cells/well) and low (8×10^5 cells/well) cell concentration, respectively.

[6] = Pharmacokinetics of FK 506 i.v. with LNS 0694 i.p. in Lewis rats; format: in vivo, rat; settings: male Lewis rats; FK 506 1 mg/kg i.v.; LNS 0694 i.p. different doses
Method: as §1
Treatment: Lewis rats were treated as described in example 3. Subsets of 3 Lewis rats per group were used for blood sampling at each time point (Groups 2-5) at described in the table below.
Plasma Blood Sample Collection: Whole blood was collected from the retro-orbital sinus under 60:40 CO2:O2 anesthesia using EDTA as the anticoagulant. Sample collection was performed at 9 time points: 5, 15, and 30 min and 1, 2, 4, 6, 8, & 24 hr after administration of FK 506. Three samples were collected from each rat per group (Groups 2-5). The first 2 samples were collected under anesthesia, after which the animal regained consciousness and was retained until the next collection interval. […]
Drug levels were determined in collected whole blood samples using a bioanalytical method developed to detect parent drug levels.
Results: The pharmacokinetics parameters of FK 506 were determined in male Lewis rats after 1 mg/kg i.v. administration alone or in combination with i.p, administration of different doses of LNS 0694 (See FIG. 16).

[7] = Pharmacokinetics of FK506 i.v. with Quercetin i.p. in rats; format: in vivo, rat
Method: as §1, with “weeks-old rats, e.g.,” for “weeks-old”, “rats, can be used.” for “rats were obtained from Charles River Laboratories.”, “are” for “was”
Treatment: Rats are treated as i.v with FK506 and i.p. with Quercetin at two different concentrations, 500 mg/kg or 200 mg/kg. Subsets of 3 Lewis rats per group are used for blood sampling at each time point (Groups 2-5) at described in the table below.
Plasma Blood Sample Collection: Whole blood is collected from the retro-orbital sinus under 60:40 CO2:O2 anesthesia using EDTA as the anticoagulant. Sample collection is performed at 9 time points: 5, 15, and 30 min and 1, 2, 4, 6, 8, & 24 hr after administration of FK 506. Three samples were collected from each rat per group (Groups 2-5). The first 2 samples are collected under anesthesia, after which the animal regained consciousness and is retained until the next collection interval. The third/last sample is also collected under anesthesia, however the animal is euthanatized prior to anesthetic recovery.
Whole blood samples are placed on dry ice after collection and stored frozen at […] (±10° C.) until analysis.
Drug levels are determined in collected samples using bioanalytical methods developed to detect parent drug levels known in the art.

[8] = in vivo; cited from earlier work
[9] = higher 200 mg/kg quercetin dose i.p.

Structure (SMILES)	incidence of fetal cleft palate [1]	effect on FK 506 inhibitory effect in MLR [2]	effect on FK 506 inhibitory effect, responders activated with Con A [3]	effect on tacrolimus induced cell suppression in vitro ([4]; Con A, tacrolimus 10^-8.2 and 10^-8.5 M, increasing doses of quercetin)	effect on response of spleen cells to Con A (proliferation) ([4]; high ([…]10^6 cells/well) and low (8×10^5 cells/well) cell concentration)	effect on response of spleen cells to LPS (proliferation) [5]	effect on peripheral bioavailability of FK506 [6]	effect on peripheral bioavailability of FK506 ([7]; Quercetin i.p. different doses)	effect on calculated AUC (0-infinity) of FK 506 ([7]; Quercetin i.p. different doses, vs control group)	effect on Cmax of FK 506 [7, 9]	effect on Vd of FK 506 [7, 9]	effect on clearance of FK 506 [7, 9]	serum half-life [8]
CC[C@H](C)[C@H]1O[C@]2(C=C[C@@H]1C)C[C@@H]1C[C@@H](C/C=C(\C)[C@@H](O[C@H]3C[C@H](OC)[C@@H](O[C@H]4C[C@H](OC)[C@@H](O)[C@H](C)O4)[C@H](C)O3)[C@@H](C)/C=C/C=C3\CO[C@@H]4[C@H](O)C(C)=C[C@@H](C(=O)O1)[C@]34O)O2 [avermectin]	100%	–	–	–	–	–	–	–	–	–	–	–	–
O=c1c(O)c(-c2ccc(O)c(O)c2)oc2cc(O)cc(O)c12 [Quercetin, quercetin]	–	increased FK 506 inhibitory effect in a dose-dependent manner	increased FK 506 inhibitory effect	did not impair	no significant effect	no significant effect	increases the peripheral bioavailability of FK506 in a dose dependent manner	increases the peripheral bioavailability of FK506 in a dose dependent manner	increases	increase	decrease	decrease	19 to 25 h
